# Assay results taken from US20230103007A1, “COMBINATION THERAPY FOR TREATING ABNORMAL CELL GROWTH” (priority 2020, published 2023).
# Assays:
# [1] = tested on: H2122 KRAS G12C mt NSCLC xenograft; assay: Xenograft efficacy study, H2122; assay type: in vivo, Balb/c nude mice; conditions: for effect on AMG-510 efficacy (change in tumor volume): in combination with AMG-510, H2122 tumor bearing mice, 10 days; for mice with tumor regression, combination with sotorasib: in combination with sotorasib, 10 days of treatment; for augmentation of tumor growth inhibition by sotorasib: 0.3 mg/kg QD in combination with sotorasib 30 mg/kg QD
# Protocol: (§1) KRAS G12C mutant NSCLC H2122 and H358 tumor cells and Balb/c nude mice were used. Tumor challenge was initiated by subcutaneous inoculation of 1×10^7 tumor cell suspensions into the right flank of recipient mice. Tumor sizes (mm^3) and body weights were measured 3 times per week for the duration of the study. At the time of routine monitoring, the animals were checked for any effects of tumor growth and treatments on normal behavior such as mobility, food and water consumption (by looking only), and body weight gain/loss, eye/hair matting and any other abnormal effect.
# (§2) For efficacy studies, once tumors reached an average volume of 150-200 mm^3, mice were sorted into 10 groups (n=10): vehicle 1 (5% DMSO, 10% HPCD in sterile water)+vehicle 2 (2% HPMC, 1% Tween 80 in sterile water), VS-6766 in vehicle 1 (0.3 mg/kg PO QD, 28 days)+vehicle 2, AMG-510 in vehicle 2 (30 mg/kg PO QD, 28 days)+vehicle 1, VS-6766+AMG-510, VS-4718 (0.5% CMC-Na, 0.1% Tween 80 in sterile water) (50 mg/kg PO BID, 28 days)+vehicle 2, VS-4718+VS-6766, VS-4718+AMG-510, VS-4718+AMG-510+VS-6766, trametinib (0.3 mg/kg PO QD, 28 days) (0.5% hydroxypropylmethylcellulose and 0.2% Tween-80 in distilled water (pH 8.0))+vehicle 2, and trametinib+AMG-510. Mice were euthanized when tumor volumes>2,000 mm^3.
# [2] = tested on: H358 KRAS G12C mt NSCLC xenograft; assay: Xenograft efficacy study, H358; assay type: in vivo, Balb/c nude mice; conditions: in combination with G12Ci (AMG-510); 21 days
# Protocol: as §1, §2
# [3] = tested on: KRAS G12C mt NSCLC and colorectal cancer cell lines (H2122, H358, H2030, H1373, SW837, SW1463); assay: 3D proliferation assay in vitro (CellTiter-Glo 3D, synergy analysis); assay type: cell-based; conditions: 7 days treatment, panel of KRAS G12C mt NSCLC and CRC cell lines, Loewe model
# Protocol: KRAS G12C mutant NSCLC (H2122, H358, H2030, H1373) and colorectal cancer (CRC; SW837 and SW1463) were used. Briefly, 96-well plates were coated with 50 μL of Matrigel (100%) and incubated at 37° C. and 5% CO2 for 30 min in order for the Matrigel to solidify. Cells were seeded in 100 μL of 2% Matrigel containing medium. After an incubate overnight (17-22 hours) cells were treated with VS-6766 +/−G12C inhibitor +/−Defactinib for 7 days. Cell viability was measured using the cell viability CellTiter-Glo 3D assay. Combination effects were evaluated by comparing the averaged viability/inhibition to two different null reference models derived from the single agent activities. Bliss, Loewe and Highest Single Agent synergy analysis were performed to determine synergy scores.
# [4] = tested on: RAS pathway signaling (pMEK, pERK, p-p90RSK); assay: Western blot of RAS pathway signaling in KRAS G12C mt NSCLC cell lines; assay type: cell-based
# Protocol: KRAS G12C mutant NSCLC cells (H2122, H358, H1373 and SW1573) were seeded in 10-cm dishes. After an incubate overnight (17-22hrs) cells were treated with 100 nM VS-6766 +/−100 nM G12C inhibitor. 4 and 48 hours post compound treatment, cells were collected, and cell lysates prepared using RIPA buffer containing protease inhibitors. Western blot assays were run using antibodies for pMEK, MEK, pERK, ERK, p-p90RSK, p90RSK and actin.
# [5] = tested on: pMEK and pERK in H2122 KRAS G12C NSCLC xenograft tumors; assay: Pharmacodynamic study in H2122 xenograft tumors (pMEK, pERK western blot); assay type: in vivo, Balb/c nude mice; conditions: VS-6766 0.3 mg/kg + AMG-510 30 mg/kg, oral, daily for 5 days; tumors harvested 2, 8 and 24 hours after final dose
# Protocol: as §1
# [6] = 100 nM VS-6766 + 100 nM AMG-510, 4 and 48 hours
# [7] = 100 nM VS-6766 + 100 nM MRTX849, 4 and 48 hours
Compound,effect on AMG-510 efficacy (change in tumor volume) [1],"mice with tumor regression, combination with sotorasib [1]",effect on efficacy of G12Ci in H358 xenograft model [2],augmentation of tumor growth inhibition by sotorasib [1],"mice with tumor reductions of >35%, triple combination ([1]; triple combination of VS-6766, sotorasib and a FAK inhibitor)","synergy in reducing viability, combination with adagrasib [3]","synergy in reducing viability, combination with sotorasib [3]","depth and duration of inhibition of MEK/ERK signaling, added to AMG-510, relative to G12C inhibitor alone [4, 6]","pERK inhibition by combination with AMG-510 versus AMG-510 alone [4, 6]","depth and duration of inhibition of MEK/ERK signaling, added to MRTX849, relative to G12C inhibitor alone [4, 7]","pERK inhibition by combination with MRTX849 versus MRTX849 alone [4, 7]","suppression of RAS pathway signaling (pMEK, pERK, p-p90RSK) as a single agent ([4]; single agent, 100 nM, 4 and 48 hours, KRAS-G12C NSCLC cell lines)","inhibition of pMEK and pERK in tumors, combination with sotorasib relative to sotorasib alone [5]"
CNC(=O)c1ccccc1Nc1cc(Nc2ccc(N3CCOCC3)cc2OC)ncc1C(F)(F)F [FAK inhibitor],potentiate,4/10,enhance,–,–,–,–,–,–,–,–,–,–
CNS(=O)(=O)Nc1nccc(Cc2c(C)c3ccc(Oc4ncccn4)cc3oc2=O)c1F [VS-6766],potentiate,5/10,enhance,augmented,10/10,synergistic,synergistic,increases depth and duration of inhibition,better,increases depth and duration of inhibition,better,effectively suppressed,improved inhibition
CNC(=O)c1ccc(Nc2ncc(C(F)(F)F)c(NCc3nccnc3N(C)S(C)(=O)=O)n2)cc1 [defactinib],–,–,–,–,–,synergistic,synergistic,–,–,–,–,–,–
"CC(=O)Nc1cccc(-n2c(=O)n(C3CC3)c(=O)c3c(Nc4ccc(I)cc4F)n(C)c(=O)c(C)c32)c1 [trametinib, reference compound]",–,1/10,–,much less effective,–,–,–,–,–,–,–,–,–
